Activity calls are given as the source filed them. How the calls were made is not given here.
Test system: CCRIS mutagenicity, Ames/micronucleus/aberration tests
Assay: CCRIS mutagenicity studies
[1] = Test System: AMES SALMONELLA TYPHIMURIUM, Strain/Indicator: TA98, Metabolic Activation: NONE, Method: STANDARD PLATE
[2] = Test System: AMES SALMONELLA TYPHIMURIUM, Strain/Indicator: TA100, Metabolic Activation: NONE, Method: STANDARD PLATE
[3] = Test System: AMES SALMONELLA TYPHIMURIUM, Strain/Indicator: TA1535, Metabolic Activation: NONE, Method: STANDARD PLATE
[4] = Test System: AMES SALMONELLA TYPHIMURIUM, Strain/Indicator: TA1537, Metabolic Activation: NONE, Method: STANDARD PLATE
[5] = Test System: AMES SALMONELLA TYPHIMURIUM, Strain/Indicator: TA98, Metabolic Activation: RAT, LIVER, S-9, AROCLOR 1254, Method: STANDARD PLATE
[6] = Test System: AMES SALMONELLA TYPHIMURIUM, Strain/Indicator: TA100, Metabolic Activation: RAT, LIVER, S-9, AROCLOR 1254, Method: STANDARD PLATE
[7] = Test System: AMES SALMONELLA TYPHIMURIUM, Strain/Indicator: TA1535, Metabolic Activation: RAT, LIVER, S-9, AROCLOR 1254, Method: STANDARD PLATE
[8] = Test System: AMES SALMONELLA TYPHIMURIUM, Strain/Indicator: TA1537, Metabolic Activation: RAT, LIVER, S-9, AROCLOR 1254, Method: STANDARD PLATE

Structure (SMILES): CC[C@H](C)[C@H](NC(=O)[C@H](Cc1ccc(O)cc1)NC(=O)CNC(=O)[C@@H](NC(=O)[C@@H](NC(=O)[C@H](CS)NC(=O)[C@H](CC(N)=O)NC(=O)[C@H](CS)NC(=O)[C@H](C)NC(=O)[C@H](Cc1ccc(O)cc1)NC(=O)[C@H](CCCCN)NC(=O)[C@H](CC(=O)O)NC(=O)[C@H](CC(C)C)NC(=O)[C@H](C)NC(=O)[C@H](CCC(=O)O)NC(=O)[C@@H](NC(=O)[C@H](Cc1ccc(O)cc1)NC(=O)[C@H](CCSC)NC(=O)[C@H](CS)NC(=O)[C@@H](NC(=O)CNC(=O)[C@H](CC(=O)O)NC(=O)[C@H](Cc1cnc[nH]1)NC(=O)[C@H](CC(C)C)NC(=O)[C@H](CS)NC(=O)[C@H](Cc1ccc(O)cc1)NC(=O)CNC(=O)[C@H](CC(=O)O)NC(=O)[C@H](Cc1cnc[nH]1)NC(=O)[C@H](CO)NC(=O)[C@H](CC(C)C)NC(=O)[C@@H]1CCCN1C(=O)[C@H](CS)NC(=O)[C@H](CCC(=O)O)NC(=O)[C@H](CO)NC(=O)[C@H](CC(=O)O)NC(=O)[C@H](CO)NC(=O)[C@@H](N)CC(N)=O)C(C)C)[C@@H](C)CC)C(C)C)C(C)C)C(=O)NCC(=O)N[C@@H](CCC(=O)O)C(=O)N[C@@H](CCCNC(=N)N)C(=O)N[C@@H](CS)C(=O)N[C@@H](CCC(N)=O)C(=O)N[C@@H](Cc1ccc(O)cc1)C(=O)N[C@@H](CCCNC(=N)N)C(=O)N[C@@H](CC(=O)O)C(=O)N[C@@H](CC(C)C)C(=O)N[C@@H](CCCCN)C(=O)N[C@@H](Cc1c[nH]c2ccccc12)C(=O)N[C@@H](Cc1c[nH]c2ccccc12)C(=O)N[C@@H](CCC(=O)O)C(=O)N[C@@H](CC(C)C)C(=O)N[C@@H](CCCNC(=N)N)C(=O)O
- mutagenic call [1]: inactive; negative
- mutagenic call (Test System: AMES SALMONELLA TYPHIMURIUM, Strain/Indicator: TA98, Metabolic Activation: RAT, LIVER, S-9, PHENOBARBITAL AND 5,6-BENZOFLAVONE, Method: STANDARD PLATE): inactive; negative
- mutagenic call [2]: inactive; negative
- mutagenic call (Test System: AMES SALMONELLA TYPHIMURIUM, Strain/Indicator: TA100, Metabolic Activation: RAT, LIVER, S-9, PHENOBARBITAL AND 5,6-BENZOFLAVONE, Method: STANDARD PLATE): inactive; negative
- mutagenic call [3]: inactive; negative
- mutagenic call (Test System: AMES SALMONELLA TYPHIMURIUM, Strain/Indicator: TA1535, Metabolic Activation: RAT, LIVER, S-9, PHENOBARBITAL AND 5,6-BENZOFLAVONE, Method: STANDARD PLATE): inactive; negative
- mutagenic call [4]: inactive; negative
- mutagenic call (Test System: AMES SALMONELLA TYPHIMURIUM, Strain/Indicator: TA1537, Metabolic Activation: RAT, LIVER, S-9, PHENOBARBITAL AND 5,6-BENZOFLAVONE, Method: STANDARD PLATE): inactive; negative
- mutagenic call (Test System: E. COLI, Strain/Indicator: WP2 UVRA, Metabolic Activation: NONE, Method: STANDARD PLATE): inactive; negative
- mutagenic call (Test System: E. COLI, Strain/Indicator: WP2 UVRA, Metabolic Activation: RAT, LIVER, S-9, PHENOBARBITAL AND 5,6-BENZOFLAVONE, Method: STANDARD PLATE): inactive; negative

Structure (SMILES): CNC(=O)NO
- mutagenic call [1]: inactive; negative
- mutagenic call [2]: inactive; negative

Structure (SMILES): O=[N+]([O-])c1ccccc1C(F)(F)F
- mutagenic call [1]: inactive; negative
- mutagenic call [5]: inactive; negative
- mutagenic call [2]: inactive; negative
- mutagenic call [6]: inactive; negative
- mutagenic call [3]: inactive; negative
- mutagenic call [7]: inactive; negative
- mutagenic call [4]: inactive; negative
- mutagenic call [8]: inactive; negative
- mutagenic call (Test System: AMES SALMONELLA TYPHIMURIUM, Strain/Indicator: TA1538, Metabolic Activation: NONE, Method: STANDARD PLATE): inactive; negative
- mutagenic call (Test System: AMES SALMONELLA TYPHIMURIUM, Strain/Indicator: TA1538, Metabolic Activation: RAT, LIVER, S-9, AROCLOR 1254, Method: STANDARD PLATE): inactive; negative

Structure (SMILES): OC1c2ccccc2Oc2ccccc21
- mutagenic call (Test System: AMES SALMONELLA TYPHIMURIUM, Strain/Indicator: TA97, Metabolic Activation: NONE, Method: PREINCUBATION): active; positive
- mutagenic call (Test System: AMES SALMONELLA TYPHIMURIUM, Strain/Indicator: TA97, Metabolic Activation: RAT, LIVER, S-9, PHENOBARBITAL AND 5,6-BENZOFLAVONE, Method: PREINCUBATION): active; positive
- mutagenic call (Test System: AMES SALMONELLA TYPHIMURIUM, Strain/Indicator: TA98, Metabolic Activation: NONE, Method: PREINCUBATION): active; positive
- mutagenic call (Test System: AMES SALMONELLA TYPHIMURIUM, Strain/Indicator: TA98, Metabolic Activation: RAT, LIVER, S-9, PHENOBARBITAL AND 5,6-BENZOFLAVONE, Method: PREINCUBATION): active; positive
- mutagenic call (Test System: AMES SALMONELLA TYPHIMURIUM, Strain/Indicator: TA100, Metabolic Activation: NONE, Method: PREINCUBATION): inactive; negative
- mutagenic call (Test System: AMES SALMONELLA TYPHIMURIUM, Strain/Indicator: TA100, Metabolic Activation: RAT, LIVER, S-9, PHENOBARBITAL AND 5,6-BENZOFLAVONE, Method: PREINCUBATION): inactive; negative
- mutagenic call (Test System: AMES SALMONELLA TYPHIMURIUM, Strain/Indicator: TA2637, Metabolic Activation: NONE, Method: PREINCUBATION): active; positive
- mutagenic call (Test System: AMES SALMONELLA TYPHIMURIUM, Strain/Indicator: TA2637, Metabolic Activation: RAT, LIVER, S-9, PHENOBARBITAL AND 5,6-BENZOFLAVONE, Method: PREINCUBATION): inactive; negative

Structure (SMILES): O=C(/C=C/c1ccc(Br)cc1)c1ccccc1
- mutagenic call [1]: inactive; negative
- mutagenic call [5]: inactive; negative
- mutagenic call [2]: inactive; negative
- mutagenic call [6]: inactive; negative

Structure (SMILES): Clc1c2ccccc2cc2ccccc12
- mutagenic call [5]: active; positive
- mutagenic call [6]: active; positive

Structure (SMILES): Cc1cccc(NS(=O)(=O)c2cccc3cccnc23)c1
- mutagenic call [1]: inactive; negative
- mutagenic call [5]: inactive; negative
- mutagenic call [2]: inactive; negative
- mutagenic call [6]: inactive; negative
- mutagenic call [3]: inactive; negative
- mutagenic call [7]: inactive; negative
- mutagenic call [4]: inactive; negative
- mutagenic call [8]: inactive; negative

Structure (SMILES): C1=CC2CCCCC2c2ccccc21 (stereo unspecified)
- mutagenic call (Test System: AMES SALMONELLA TYPHIMURIUM, Strain/Indicator: TA98, Metabolic Activation: RAT, LIVER, S-9, SODIUM PHENOBARBITAL AND BETA-NAPHTHOFLAVONE, Method: STANDARD PLATE): active; positive
- mutagenic call (Test System: AMES SALMONELLA TYPHIMURIUM, Strain/Indicator: TA100, Metabolic Activation: RAT, LIVER, S-9, SODIUM PHEOBARBITAL AND BETA-NAPHTHOFLAVONE, Method: STANDARD PLATE): active; positive

Reference: PubChem BioAssay AID1259407 (Chemical Carcinogenesis Research Information System (CCRIS), 2018)
